# Assay results from publication PMC10076643, “Design, synthesis and anticancer activity studies of 3-(coumarin-3-yl)-acrolein derivatives: Evidenced by integrating network pharmacology and vitro assay” (Frontiers in Pharmacology, 2023).
# How the values were obtained:
# [1] = test system: MCF-7 (human breast cancer cell line); test: MTT antiproliferative assay, MCF-7; format: cell-based; details: MCF7, 72 h
# Text: (§1) All the synthesized compounds were screened for in vitro antiproliferative activity against four human cancer cell lines A549 (human lung cancer cell line), KB (human oral epidermoid carcinoma cell line), Hela (human cervical carcinoma cell line), MCF-7 (human breast cancer cell line) and two human normal cell lines HUVEC (human umbilical vein endothelial cell) and LO2 (human normal hepatocytes) through the 3-(4,5-dimethyl-2-thiazolyl)-2,5-diphenyl-2-H-tetrazolium bromide (MTT) assay.
# (§2) Non-small-cell lung cancer (A549), oral epidermoid carcinoma (KB), cervical cancer (Hela) and breast cancer (MCF-7) cells were purchased from the American Type Culture Collection (ATCC, America). Human umbilical vein endothelial cell (HUVEC) and human normal hepatocytes (LO2) cells were provided by Guangzhou Medical University (Guangzhou, China). A549 and KB cells were cultured in RMPI-1640 medium (Gibco, America). Hela, MCF-7 and LO2 cells were cultured in DMEM medium (Gibco, America). HUVEC cells were cultured in Ham’s F-12K medium (Gibco, America). All the mediums were supplemented with 10% fetal bovine serum (FBS) (BI, State of Israel), 100 U/mL penicillin and 100 μg/mL streptomycin (Gibco, America), and all the cells were incubated in a sterile incubator at 37°C in an environment of 5% CO2. The tested compounds were dissolved in dimethyl sulfoxide (DMSO) at a concentration of 10 mM, and then diluted into different concentration of solutions by culture medium. The final concentration of DMSO was <0.01% (v/v) in all drug treatment groups to avoid the toxicity in the biological system. Untreated cells were used as a blank control and 5-fluorouracil treated cells were used as a positive control.
# (§3) The incubated tumor cells were planted into 96-well plates (4×10^3 cells/well). After 24 h, the cells were adherent to the wall and treated with the compound 6e in different concentrations (0.78, 1.56, 3.12, 6.25, 12.50, 25.00, and 50.00 μM) for 72 h. Afterwards, the medium was supplemented with 10 µL MTT solution. After 4 h, the culture medium was removed and 100 µL DMSO was added. The absorbance was determined at the wavelength of 540 nm and 655 nm using a microplate reader (BioTek Epoch, America). The results were collected from three independent experiments. The IC50 was then calculated by using GraphPad Prism Software (version 7.0) and non-linear regression (curve fit).
# [2] = test system: LO2 (human normal hepatocytes); test: MTT antiproliferative assay, LO2 normal cells; format: cell-based; details: Hepatocyte, 72 h
# Text: as §1, §2, §3
# [3] = test system: HUVEC (human umbilical vein endothelial cell); test: MTT antiproliferative assay, HUVEC normal cells; format: cell-based; details: 72 h
# Text: as §1, §2, §3
# [4] = test system: A549 (human lung cancer cell line); test: MTT antiproliferative assay, A549; format: cell-based; details: for IC50: Homo sapiens, A549, MTT, 72 h
# Text: as §1, §2, §3
# [5] = test system: Hela (human cervical carcinoma cell line); test: MTT antiproliferative assay, Hela; format: cell-based; details: 72 h
# Text: as §1, §2, §3
# [6] = test system: KB (human oral epidermoid carcinoma cell line); test: MTT antiproliferative assay, KB; format: cell-based; details: Homo sapiens; MTT, 72 h
# Text: as §1, §2, §3
# [7] = test system: various human cancer cells; parameters: method as in Yan et al., 2022; details: ref Yan et al., 2022; read-out: IC50 values, anti-proliferative activities towards various human cancer cells; cited from earlier work
IC50 [1],IC50 [4],IC50 [5],melting point,IC50 [6],SMILES,IC50 [2],IC50 [3],"more potent than 5a and 5-FU ([4]; A549 cells, relative to 5a and 5-FU)",IC50 [7]
> 100 µM,> 100 µM,> 100 µM,250 to 252 °C,> 100 µM,"O=CC=C(Cl)c1cc2ccc(OCc3ccc([N+](=O)[O-])cc3)cc2oc1=O [Compound 6f, 3-Chloro-3-(7-((4-nitrobenzyl)oxy)-2-oxo-2H-chromen-3-yl)acrylaldehyde]",> 100 µM,> 100 µM,–,–
12.4 ± 0.49 µM,2.78 ± 0.01 µM,> 100 µM,202 to 203 °C,3.41 ± 0.4 µM,"COc1ccc2cc(C(Cl)=CC=O)c(=O)oc2c1 [Compound 6a, 3-Chloro-3-(7-methoxy-2-oxo-2H-chromen-3-yl)acrylaldehyde]",61.04 ± 0.03 µM,10.09 ± 0.07 µM,–,–
51.63 ± 0.13 µM,5.61 ± 0.01 µM,22.7 ± 0.21 µM,149 to 151 °C,4.28 ± 0.02 µM,"CC(C)Oc1ccc2cc(C(Cl)=CC=O)c(=O)oc2c1 [Compound 6d, 3-Chloro-3-(7-isopropoxy-2-oxo-2H-chromen-3-yl)acrylaldehyde]",33.27 ± 0.02 µM,31.92 ± 0.07 µM,–,–
1.73 ± 0.01 µM,6.28 ± 0.04 µM,> 100 µM,150 to 152 °C,4.54 ± 0.11 µM,"CCCOc1ccc2cc(C(Cl)=CC=O)c(=O)oc2c1 [Compound 6c, 3-Chloro-3-(2-oxo-7-propoxy-2H-chromen-3-yl)acrylaldehyde]",43.52 ± 0.03 µM,53.92 ± 0.46 µM,–,–
5.13 ± 0.07 µM,> 100 µM,> 100 µM,217 to 219 °C,> 100 µM,"O=CC=C(Cl)c1cc2ccc(OCc3cccc(Br)c3)cc2oc1=O [Compound 6g, 3-(7-((3-Bromobenzyl)oxy)-2-oxo-2H-chromen-3-yl)-3-chloroacrylaldehyde]",> 100 µM,> 100 µM,–,–
23.29 ± 0.2 µM,11.34 ± 0.07 µM,2.91 ± 0.17 µM,195 to 196 °C,> 100 µM,"CCOc1ccc2cc(C(Cl)=CC=O)c(=O)oc2c1 [Compound 6b, 3-Chloro-3-(7-ethoxy-2-oxo-2H-chromen-3-yl)acrylaldehyde]",> 100 µM,> 100 µM,–,–

# The next lines start with the molecule.
SMILES,IC50 [1],IC50 [4],IC50 [5],melting point,IC50 [6],IC50 [2],IC50 [3],"more potent than 5a and 5-FU ([4]; A549 cells, relative to 5a and 5-FU)",IC50 [7]
"O=CC=C(Cl)c1cc2ccc(Br)cc2oc1=O [Compound 5d, 3-(7-Bromo-2-oxo-2H-chromen-3-yl)-3-chloroacrylaldehyde]",4.23 ± 0.15 µM,0.7 ± 0.05 µM,1.36 ± 0.43 µM,182 to 183 °C,1.12 ± 0.03 µM,42.97 ± 0.04 µM,10.52 ± 0.02 µM,10 fold,–
"CCN(CC)c1ccc2cc(C(Cl)=CC=O)c(=O)oc2c1 [Compound 5c, 3-Chloro-3-(7-(diethylamino)-2-oxo-2H-chromen-3-yl)acrylaldehyde]",18.99 ± 0.18 µM,7.51 ± 0.02 µM,4.85 ± 0.19 µM,206 to 208 °C,3.15 ± 0.09 µM,52.65 ± 0.07 µM,6.42 ± 0.51 µM,–,–
COc1ccc2c(/C=C(\C)C(=O)c3cc(OC)c(OC)c([Se]C)c3)c[nH]c2c1 [compound J],–,–,–,–,–,–,–,–,0.008 to 0.035 µM
"O=CC=C(Cl)c1cc2cc(Br)ccc2oc1=O [Compound 5g, 3-(6-Bromo-2-oxo-2H-chromen-3-yl)-3-chloroacrylaldehyde]",9.25 ± 0.1 µM,2.45 ± 0.01 µM,13.4 ± 0.22 µM,199 to 201 °C,0.87 ± 0.01 µM,66.36 ± 0.09 µM,10.9 ± 0.02 µM,–,–
"O=CC=C(Cl)c1cc2ccc(O)cc2oc1=O [Compound 5b, 3-Chloro-3-(7-hydroxy-2-oxo-2H-chromen-3-yl)acrylaldehyde]",6.74 ± 0.64 µM,> 100 µM,> 100 µM,204 to 205 °C,> 100 µM,> 100 µM,> 100 µM,–,–
"Cc1ccc2oc(=O)c(C(Cl)=CC=O)cc2c1 [Compound 5f, 3-Chloro-3-(6-methyl-2-oxo-2H-chromen-3-yl)acrylaldehyde]",20.1 ± 0.32 µM,4.57 ± 0.01 µM,3.82 ± 0.11 µM,179 to 181 °C,2.22 ± 0.04 µM,25.01 ± 0.03 µM,27.38 ± 0.24 µM,–,–
"O=c1[nH]cc(F)c(=O)[nH]1 [5-FU, 5-Fluorouracil, reference compound]",19.2 ± 3.29 µM,7.41 ± 0.09 µM,1.37 ± 1.72 µM,–,5.75 ± 2.23 µM,10.68 ± 0.03 µM,4.08 ± 0.06 µM,–,–
"O=CC=C(Cl)c1cc2cc(O)ccc2oc1=O [Compound 5e, 3-Chloro-3-(6-hydroxy-2-oxo-2H-chromen-3-yl)acrylaldehyde]",8.71 ± 0.31 µM,6.67 ± 0.01 µM,> 100 µM,250 to 252 °C,3.23 ± 0.3 µM,14.11 ± 0.04 µM,34.84 ± 0.11 µM,–,–
"O=CC=C(Cl)c1cc2ccccc2oc1=O [Compound 5a, 3-Chloro-3-(2-oxo-2H-chromen-3-yl)acrylaldehyde]",3.55 ± 0.17 µM,7.97 ± 0.01 µM,1.01 ± 0.28 µM,167 to 169 °C,1.3 ± 0.02 µM,40.34 ± 0.02 µM,22.8 ± 0.35 µM,–,–
